Assay [1] concerns the target T1, scavenger receptor B1 (Mus musculus, UniProt Q61009).
T1 construct: endogenous in cells; host or cells: RGSKI mice (whole animal, in vivo)
T1 sequence (Q61009 1-509): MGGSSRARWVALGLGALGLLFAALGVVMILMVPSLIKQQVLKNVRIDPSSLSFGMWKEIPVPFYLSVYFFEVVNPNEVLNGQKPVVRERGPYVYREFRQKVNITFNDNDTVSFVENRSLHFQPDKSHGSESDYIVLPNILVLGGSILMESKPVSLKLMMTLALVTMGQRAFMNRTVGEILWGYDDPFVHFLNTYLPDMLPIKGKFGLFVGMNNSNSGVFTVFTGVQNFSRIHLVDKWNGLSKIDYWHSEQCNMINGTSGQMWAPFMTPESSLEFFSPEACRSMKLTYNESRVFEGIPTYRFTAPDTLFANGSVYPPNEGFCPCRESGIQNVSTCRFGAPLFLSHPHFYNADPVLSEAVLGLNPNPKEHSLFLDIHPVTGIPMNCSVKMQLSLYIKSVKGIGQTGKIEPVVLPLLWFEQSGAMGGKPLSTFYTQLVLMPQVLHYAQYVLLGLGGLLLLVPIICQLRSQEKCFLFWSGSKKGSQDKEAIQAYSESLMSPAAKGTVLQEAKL
Nature of the assay: Clearance of infused human RBCs from peripheral blood of RGSKI mice after blocking scavenger receptor B1 (FIG. 4). The following applies: BLT-1 80 mg/kg body weight one hour before human RBC infusion, control DMSO. The class given is in vivo. As for the experimental part: RGSKI mice were treated with scavenger receptor B1 named BLT-1 (80 mg/kg body weight). One hour after treatment, mice were infused with human RBCs and peripheral blood was collected at indicated time points. Control: DMSO.

The conditions of assay [2]: Navab et al., 2006; cited from earlier work.
The test system of assay [3] is human RBCs. Put plainly: Clearance of infused human RBCs from peripheral blood of RGSKI mice after blocking macrophage receptors (FIG. 3). The class given is in vivo. Particulars: RGSKI mice treated one hour before human RBC infusion, D-4F 10 mg/mouse, control PBS, peripheral blood by FACS. On the procedure: D-4F blocks several scavenger receptors. RGSKI mice were treated with different antibodies or inhibitors to block various macrophage receptors. One hour after treatment, mice were infused with human RBCs and peripheral blood was collected at indicated time points. Anti-Dectin: 50 ug/mouse; Anti-CD169: 50 ug/mouse; Anti-CD169 clone 3D6: 100 ug/mice; Anti-Mannose receptor: 50 ug/mouse; D-4F: 10 mg/mouse; Asialofetuin: 10 mg/mouse; Control: PBS.
First, an experiment was conducted to examine the clearance of human red blood cells in mouse peripheral blood. Human and mouse red blood cells were pre-labeled with CFSE or violet dye, respectively, and then were transfused into RGSKI mice by retro-orbital injection. Peripheral blood was collected 5 minutes after blood infusion and the frequency of infused mouse or human RBCs was determined by FACS. It was observed that the frequency of infused human RBCs decreased more rapidly than mouse RBCs (FIG. 1B).
Experiments were then performed to evaluate the role of the scavenger receptor in RBC clearance. D-4F is an apolipoprotein A-I mimetic peptide and a general scavenger receptor inhibitor. D-4F is an 18 D-amino acid peptide (Ac-D-W-L-K-A-F-Y-D-K-V-A-E-K-L-K-E-A-F—NH2; SEQ ID NO: 2). […] Other pathways which might involve in the destruction of human RBCs in the periphery were also tested.

The text below walks through data of patent US20170274001A1, “Compositions and Methods for Increasing Red Blood Cells” (Yale University, priority 2014, published 2017).

“Also recorded” adds a separate entry of the source.

For `CCCCCCC1CCCC1=NNC(N)=S` (stereo not shown) [BLT-1, 2-Hexyl-1-cyclopentanone thiosemicarbazone], the “percent of remaining RBCs in the periphery after human RBC infusion” value in assay [1] is listed as “can protect infused human RBCs in the mouse system; also recorded: increases the percent of remaining RBCs in the periphery”.
As for “Ac-D-W-L-K-A-F-Y-D-K-V-A-E-K-L-K-E-A-F—NH2 (DWLKAFYDKVAEKLKEAF; HELM PEPTIDE1{[ac].[dD].[dW].[dL].[dK].[dA].[dF].[dY].[dD].[dK].[dV].[dA].[dE].[dK].[dL].[dK].[dE].[dA].[dF].[am]}$$$$V2.0; SMILES CC(=O)N[C@H](CC(=O)O)C(=O)N[C@H](Cc1c[nH]c2ccccc12)C(=O)N[C@H](CC(C)C)C(=O)N[C@H](CCCCN)C(=O)N[C@H](C)C(=O)N[C@H](Cc1ccccc1)C(=O)N[C@H](Cc1ccc(O)cc1)C(=O)N[C@H](CC(=O)O)C(=O)N[C@H](CCCCN)C(=O)N[C@@H](C(=O)N[C@H](C)C(=O)N[C@H](CCC(=O)O)C(=O)N[C@H](CCCCN)C(=O)N[C@H](CC(C)C)C(=O)N[C@H](CCCCN)C(=O)N[C@H](CCC(=O)O)C(=O)N[C@H](C)C(=O)N[C@H](Cc1ccccc1)C(N)=O)C(C)C) [D-4F]”, in assay [2], the “cholesterol efflux, inflammation and atherosclerosis” value is “increase cholesterol efflux and reduce inflammation and atherosclerosis”. Also, the “protection of infused human RBCs in the periphery” value in assay [3] is “blocks in vivo destruction of human RBCs”; in assay [3] (listed as D4-F), “protected infused human RBCs in the periphery”.
